Measurements from patent US20260097047A1, “Small molecule inhibitors of the ribosome biogenesis factor NVL2” (Board of Regents, The University of Texas System, priority 2023, published 2026).

The compounds below were run on HCT116 cells (assay: Cell viability assay (CellTiter-Glo, 72 hours) in HCT116 human colorectal cancer cells). Conditions: Homo sapiens, HCT-116; Table 1; HCT116, 72 hours; read-out: Activity.
Type: cell-based
Description: Cell culture: The HCT116 cell line was obtained from ATCC and cultured in Dulbecco's Modified Eagle's Medium (DMEM)-high glucose (Sigma Aldrich #D5796) supplemented with 10% fetal bovine serum (FBS) (Sigma-Aldrich #F2442) and 2 mM L-Glutamine (Sigma Aldrich #G7513). Cells were cultured at 37° C. in 5% CO2. The identity of all cell lines was confirmed by short tandem repeat (STR) analysis and confirmed to be mycoplasma-free using a PCR based assay (Genatlantis).
Cell viability assay: In 96-well assay plates (Corning #2903), 2,000 cells were plated per well in 100 μL of medium and allowed to adhere overnight. The next day, compounds suspended in DMSO were dispensed to the assayed wells using a D300e Digital Dispenser (Tecan). All wells were normalized to 0.5% DMSO. 72 hours after incubation at 37° C. in 5% CO2, cell viability was assayed using an ATP-based luminescent viability assay, CellTiter-Glo (Promega #G8462). Substrate was mixed 1:1 with phosphate-buffered saline (PBS) supplemented with 1% Triton X-100, and 40 μL of this mixture was added to the assay wells. Plates were shaken on a microplate shaker for 10 minutes at room temperature. Luminescence (CellTiter-Glo) was recorded using a Synergy 2 microplate reader (BioTek). In Prism 9 software (GraphPad), ten-point dose response curves were plotted with baseline-correction to the vehicle control well, and IC50 values were calculated by curve fitting using asymmetric (five parameter), least squares fit.

Row | IC50 [nM] | SMILES
1 | < 500 | C#CCOCCN1C(=O)c2ccccc2Sc2cc(NC(=O)N3CCC3)ccc21 [N-(11-Oxo-10-(2-(prop-2-yn-1-yloxy)ethyl)-10,11-dihydrodibenzo[b,f][1,4]thiazepin-7-yl) azetidine-1-carboxamide]

Same assay, conditions: Homo sapiens, HCT-116; Table 5; HCT116, 72 hours; read-out: Activity

Row | IC50 [nM] | SMILES
2 | < 500 | CC#CCN1C(=O)c2ccccc2Sc2cc(Nc3cccnc3C#N)ccc21 [3-((10-(But-2-yn-1-yl)-11-oxo-10,11-dihydrodibenzo[b,f][1,4]thiazepin-7-yl)amino) picolinonitrile]
3 | < 500 | CC#CCN1C(=O)c2ccccc2Sc2cc(Nc3ncccc3C(F)(F)F)ccc21 [10-(But-2-yn-1-yl)-7-((3-(trifluoromethyl)pyridin-2-yl)amino)dibenzo[b,f][1,4]thiazepin-11 (10H)-one]
4 | < 500 | C#Cc1cccnc1Nc1ccc2c(c1)Sc1ccccc1C(=O)N2CC#CC [10-(But-2-yn-1-yl)-7-((3-ethynylpyridin-2-yl)amino)dibenzo[b,f][1,4]thiazepin-11 (10H)-one]

The remaining lines, values behind:

Row | SMILES | IC50 [nM]
5 | CC#CCN1C(=O)c2ccc(C#N)cc2Sc2cc(Nc3nnccc3C#N)ccc21 [10-(But-2-yn-1-yl)-7-((4-cyanopyridazin-3-yl)amino)-11-oxo-10,11-dihydrodibenzo[b,f][1,4]thiazepine-3-carbonitrile] | < 500
6 | CCC/C=C/CN1C(=O)c2ccccc2Sc2cc(Nc3cc4ccccc4cn3)ccc21 [(E)-10-(Hex-2-en-1-yl)-7-(isoquinolin-3-ylamino)dibenzo[b,f][1,4]thiazepin-11 (10H)-one] | < 500

Same assay, conditions: Homo sapiens, HCT-116; Table 6; HCT116, 72 hours; read-out: Activity

Row | IC50 [nM] | SMILES
7 | < 500 | CC#CCN1C(=O)c2ccccc2Sc2cc(NC3CC(OC)C3)ccc21 (centres unmarked) [Table 6: —CH2CCMe; 3-MeOcBu; CH/CH; S, 10-(But-2-yn-1-yl)-7-((3-methoxycyclobutyl)amino)dibenzo[b,f][1,4]thiazepin-11 (10H)-one]
8 | < 500 | CC#CCN1C(=O)c2ccccc2Sc2cc(NC3CCCC3)cnc21 [Table 6: —CH2CCMe; cPent; CH/N; S, 11-(But-2-yn-1-yl)-3-(cyclopentylamino)benzo[f]pyrido[3,2-b][1,4]thiazepin-10(11H)-one]

Same assay, conditions: Table 1; HCT116, 72 hours; read-out: Activity

Row | IC50 [nM] | SMILES
9 | < 500 | CC#CCN1C(=O)c2ccccc2Sc2cc(NC(=O)N3CCCCC3)cnc21 [Table 1: —CH2CCMe; piperidin-1-yl; CH; N]

Same assay, conditions: Table 4; HCT116, 72 hours; read-out: Activity

Row | IC50 [nM] | SMILES
10 | < 500 | CC#CCN1C(=O)c2ccccc2Sc2cc(NC(=S)N[C@H]3C[C@@H](O)C3)cnc21 [Table 4: —CH2CCMe; cis-3-OH-cBu; N]

Same assay, conditions: Table 5; HCT116, 72 hours; read-out: Activity

Row | IC50 [nM] | SMILES
11 | < 500 | C#CCN1C(=O)c2ccccc2Sc2cc(Nc3ncc(C)nc3C)cnc21
12 | < 500 | CCCC=CCN1C(=O)c2ccccc2Sc2cc(Nc3nccnc3C)cnc21
13 | < 500 | CC#CCN1C(=O)c2ccccc2Sc2cc(Nc3ncccc3OC)cnc21
14 | < 500 | Cc1ccc(F)c(Nc2cnc3c(c2)Sc2ccccc2C(=O)N3CC#CCl)n1
15 | < 500 | C#CCN1C(=O)c2ccccc2Sc2cc(Nc3ncc(C)cc3C)cnc21

Row | SMILES | IC50 [nM]
16 | C#CCN1C(=O)c2ccccc2Sc2cc(Nc3cccnn3)ccc21 | < 500
17 | O=C1c2ccccc2Sc2cc(Nc3cccnn3)ccc2N1CC#CCl | < 500

Same assay, conditions: Table 6; HCT116, 72 hours; read-out: Activity

Row | IC50 [nM] | SMILES
18 | < 500 | CC#CCN1C(=O)c2ccccc2Sc2cc(NC3COC3)cnc21 [Table 6: —CH2CCMe; oxetan-3-yl; CH/N; S]
19 | < 500 | C#CCN1C(=O)c2ccccc2Sc2cc(NC3CC(COC)C3)cnc21 (centres unmarked) [Table 6: —CH2CCH; 3-MeOCH2-cBu; CH/N; S]

Same assay, conditions: Table 7; cell viability assay, CellTiter-Glo, 72 hours; scaffold drawing 42 with R^2, R^3, X/Y, Z; read-out: Activity

Row | IC50 [nM] | SMILES
20 | 1000 to 5000 | COCCN1C(=O)c2ccccc2Sc2cc(NC(=O)C3CC34CC4)ccc21 (centres unmarked) [—(CH2)2OMe; spiro[2.2]pentanyl; CH/CH; S]
21 | 1000 to 5000 | COCCN1C(=O)c2ccccc2Sc2cc(NC(=O)C3CCCCC3)ccc21 [—(CH2)2OMe; cHex; CH/CH; S]
22 | 1000 to 5000 | COCCN1C(=O)c2ccccc2Sc2cc(NC(=O)C3CC(=O)C3)ccc21 [—(CH2)2OMe; 3-oxo-cBu; CH/CH; S]

Second part, the compound before the results:

Row | SMILES | IC50 [nM]
23 | COCCN1C(=O)c2ccccc2Sc2cc(NC(=O)c3ccc4ccccc4c3)ccc21 [—(CH2)2OMe; 2-naphtyl; CH/CH; S] | 1000 to 5000
24 | COCCN1C(=O)c2ccccc2Sc2cc(NC(=O)c3ccc(N=[N+]=[N-])cc3)ccc21 [—(CH2)2OMe; 4-N3Ph; CH/CH; S] | 1000 to 5000
25 | C=CCCCOCCN1C(=O)c2ccccc2Sc2cc(NC(=O)c3ccoc3)ccc21 | < 500
26 | C=CCN1C(=O)c2ccccc2Sc2cc(NC(=O)c3ccoc3)ccc21 [—CH2CH═CH2; furan-3-yl; CH/CH; S] | < 500
27 | C#CCOCCN1C(=O)c2ccccc2Sc2cc(NC(=O)c3ccc(N=[N+]=[N-])cc3)ccc21 [—(CH2)2OCH2CCH; 4-N3Ph; CH/CH; S] | < 500

Same assay, conditions: Table 8; analogs of scaffold drawing 43 defined by R^2, R^3, X/Y, W; read-out: Activity (IC50 class, cell viability assay)

Row | IC50 [nM] | SMILES
28 | < 500 | CC#CCN1C(=O)c2ccc(F)cc2Sc2cc(NC(=O)C3CC4(CC(=NOC)C4)C3)ccc21 (centres unmarked)
29 | < 500 | CC#CCN1C(=O)c2ccccc2Sc2cc(NC(=O)OCCOC)cnc21 [—CH2CCMe; O(CH2)2OMe; CH/CH; N]
30 | < 500 | CC#CCN1C(=O)c2ccccc2Sc2cc(NC(=O)C3CC3)cnc21 [—CH2CCMe; cPr; CH/CH; N]
31 | < 500 | CC#CCN1C(=O)c2cc(F)ccc2Sc2cc(NC(=O)OCCOC)ccc21 [—CH2CCMe; O(CH2)2OMe; CH/CF; CH]
32 | < 500 | CC#CCN1C(=O)c2cc(F)ccc2Sc2cc(NC(=O)C3CC4(CC(=NOC)C4)C3)ccc21 (centres unmarked)
33 | < 500 | C#CCN1C(=O)c2cc(F)ccc2Sc2cc(NC(=O)C3CC(COC)C3)ccc21 (centres unmarked) [—CH2CCH; 3-MeOCH2-cBu; CH/CF; CH]
34 | < 500 | CC#CCN1C(=O)c2ccc(Cl)cc2Sc2cc(NC(=O)C3CC4(CC(O)C4)C3)ccc21 (centres unmarked)
35 | < 500 | CC#CCN1C(=O)c2ccccc2Sc2cc(NC(=O)c3ccoc3)cnc21 [—CH2CCMe; furan-3-yl; CH/CH; N]

The remaining lines, values behind:

Row | SMILES | IC50 [nM]
36 | CC#CCN1C(=O)c2ccccc2Sc2cc(NC(=O)C34CC(O)(C3)C4)cnc21 | < 500
37 | CC#CCN1C(=O)c2ccc(F)cc2Sc2cc(NC(=O)C3CC4(CC(=NO)C4)C3)cnc21 (centres unmarked) | < 500
38 | CC#CCN1C(=O)c2cc(F)ccc2Sc2cc(NC(=O)C=CCO)cnc21 [—CH2CCMe; CH═CHCH2OH; CH/CF; N] | < 500
39 | O=C(Nc1cnc2c(c1)Sc1ccccc1C(=O)N2CC#CC1CC1)C1CC2(CC(O)C2)C1 (centres unmarked) | < 500
40 | COCC1CC(C(=O)Nc2cnc3c(c2)Sc2ccccc2C(=O)N3CC#CC2CC2)C1 (centres unmarked) [—CH2CC^cPr; 3-MeOCH2-cBu; CH/CH; N] | < 500
41 | C#CCN1C(=O)c2ccccc2Sc2cc(NC(=O)C3CC4(CC(=NOC)C4)C3)cnc21 (centres unmarked) | < 500
42 | O=C(CCCO)Nc1cnc2c(c1)Sc1ccccc1C(=O)N2CC#CC1CC1 [—CH2CC^cPr; (CH2)3OH; CH/CH; N] | < 500
43 | CC#CCN1C(=O)c2ccc(Cl)cc2Sc2cc(NC(=O)C3CCOC3)ccc21 (centres unmarked) | < 500
44 | O=C(Nc1cnc2c(c1)Sc1ccccc1C(=O)N2CC#CC1CC1)C1CC2(CC(=NO)C2)C1 (centres unmarked) | < 500
45 | CC#CCN1C(=O)c2cc(F)ccc2Sc2cc(NC(=O)C3CCOC3)cnc21 (centres unmarked) [—CH2CCMe; tetrahydrofuran-3-yl; CH/CF; N] | < 500
46 | O=C(Nc1cnc2c(c1)Sc1ccccc1C(=O)N2CC#CCl)C1CC2(CC(=NO)C2)C1 (centres unmarked) | < 500
47 | C#CCN1C(=O)c2ccc(Cl)cc2Sc2cc(NC(=O)C3CC4(CC(=NO)C4)C3)ccc21 (centres unmarked) | < 500
48 | CC#CCN1C(=O)c2cc(F)ccc2Sc2cc(NC(=O)C3CC(COC)C3)cnc21 (centres unmarked) [—CH2CCMe; 3-MeOCH2-cBu; CH/CF; N] | < 500
49 | CC#CCN1C(=O)c2ccc(F)cc2Sc2cc(NC(=O)c3ccc(OCF)cc3)ccc21 [—CH2CCMe; 4-FH2COPh; CF/CH; CH] | < 500

Same assay, conditions: Table 9; HCT116, 72 hours; read-out: Activity

Row | IC50 [nM] | SMILES
50 | < 500 | CC#CCN1C(=O)c2ccccc2C(C)c2cc(NC(=O)C34CC(O)(C3)C4)ccc21 (centres unmarked)
51 | < 500 | CC#CCN1C(=O)c2ccccc2C(C)c2cc(NC(=O)C3CC3CO)ccc21 (centres unmarked)

The next lines start with the compound.

Row | SMILES | IC50 [nM]
52 | COCC1CC(C(=O)Nc2ccc3c(c2)C(C#N)c2ccccc2C(=O)N3CC#CCF)C1 (centres unmarked) [Table 9: —CH2CCCH2F; 3-MeOCH2-cBu; CHCN] | < 500
53 | O=C(Nc1ccc2c(c1)Cc1ccccc1C(=O)N2CC#CC1CC1)C1CC2(COC2)C1 | < 500
54 | COCC=CC(=O)Nc1ccc2c(c1)C(C)c1ccccc1C(=O)N2CC#CC1CC1 (centres unmarked) [Table 9: —CH2CC^cPr; CH═CHCH2OMe; CHMe] | < 500
55 | CC#CCN1C(=O)c2ccccc2C(C)c2cc(NC(=O)C3CC4(CC(O)C4)C3)ccc21 (centres unmarked) | < 500
56 | COCC1CC(C(=O)Nc2ccc3c(c2)Cc2ccccc2C(=O)N3CC#CC2CC2)C1 (centres unmarked) [Table 9: —CH2CCCPr; 3-MeOCH2-cBu; CH2] | < 500
57 | COC12CC(C(=O)Nc3ccc4c(c3)C(C#N)c3ccccc3C(=O)N4CC#CCF)(C1)C2 (centres unmarked) | < 500
58 | CC1c2ccccc2C(=O)N(CC#CC2CC2)c2ccc(NC(=O)C3CC4(CC(O)C4)C3)cc21 (centres unmarked) | < 500

Same assay, conditions: cell viability assay; Table 10 analogs of scaffold drawing 45 defined by R2, R3, X/Y, W; read-out: Activity

Row | IC50 [nM] | SMILES
59 | < 500 | CO[C@H]1C[C@H](C(=O)Nc2cnc3c(c2)Sc2ccccc2C(=O)N3CC#CC2CC2)C1 [—CH2CCcPr; trans-3-MeOcBu; CH/CH; N]
